Assay results from PubChem BioAssay AID2060486 (Molecular Pharmacology Branch, DTP, NCI, 2025).
pIC50: −log10 of the molar value.

Test system: IGROV1 complex spheroids (HUVEC, MSC), viability % test/control
Experiment: Anticancer human tumor IGROV1 cell line growth inhibition [GQUAD];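 also: spheroids exposed to compounds for 7 days before readout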;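 as to viability, T/C: 100% = DMSO vehicle control viability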
Conditions: for pIC50: curve of first compound; for viability, T/C: stronger effect = lower value
How it was run: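 Multi-cell-type spheroids of tumor cells with HUVEC and mesenchymal stem cells, treated with drug combinations. Concentrations descend in half-log steps from near clinical Cmax, or from 10 microM where Cmax is unknown; viability read-out.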

[1] = second compound 0.0316 µM, first compound 0.0316 µM
[2] = second compound 0.0316 µM, first compound 0.1 µM
[3] = second compound 0.0316 µM, first compound 0.316 µM
[4] = second compound 0.0316 µM, first compound 1 µM
[5] = second compound 0.0316 µM, first compound 3.16 µM
[6] = second compound 0.0316 µM, first compound 10 µM
[7] = second compound 0.1 µM, first compound 0.0316 µM
[8] = second compound 0.1 µM, first compound 0.1 µM
[9] = second compound 0.1 µM, first compound 0.316 µM
[10] = second compound 0.1 µM, first compound 1 µM
[11] = second compound 0.1 µM, first compound 3.16 µM
[12] = second compound 0.1 µM, first compound 10 µM
[13] = second compound 0.316 µM, first compound 0.0316 µM
[14] = second compound 0.316 µM, first compound 0.1 µM
[15] = second compound 0.316 µM, first compound 0.316 µM
[16] = second compound 0.316 µM, first compound 1 µM
[17] = second compound 0.316 µM, first compound 3.16 µM
[18] = second compound 0.316 µM, first compound 10 µM
[19] = second compound 1 µM, first compound 0.0316 µM
[20] = second compound 1 µM, first compound 0.1 µM
[21] = second compound 1 µM, first compound 0.316 µM
[22] = second compound 1 µM, first compound 1 µM
[23] = second compound 1 µM, first compound 3.16 µM
[24] = second compound 1 µM, first compound 10 µM
[25] = second compound 3.16 µM, first compound 0.0316 µM
[26] = second compound 3.16 µM, first compound 0.1 µM
[27] = second compound 3.16 µM, first compound 0.316 µM
[28] = second compound 3.16 µM, first compound 1 µM
[29] = second compound 3.16 µM, first compound 3.16 µM
[30] = second compound 3.16 µM, first compound 10 µM
[31] = second compound 10 µM, first compound 0.0316 µM
[32] = second compound 10 µM, first compound 0.1 µM
[33] = second compound 10 µM, first compound 0.316 µM
[34] = second compound 10 µM, first compound 1 µM
[35] = second compound 10 µM, first compound 3.16 µM
[36] = second compound 10 µM, first compound 10 µM

CC1COCCN1c1cc(-c2ccnn2C)c2ccnc(-c3ccn[nH]3)c2n1 (stereo not drawn) + Cc1[nH]c2ccc(F)cc2c1-c1nc2c3cccnc3c3ncccc3c2[nH]1
pIC50 (second compound 0.0316 µM): 7.20 | pIC50 (second compound 0.1 µM): 7.28 | pIC50 (second compound 0.316 µM): > 7.50 | pIC50 (second compound 1 µM): > 7.50 | pIC50 (second compound 3.16 µM): > 7.50 | pIC50 (second compound 10 µM): > 7.50 | viability, T/C [1]: 81.2% | viability, T/C [2]: 29.2% | viability, T/C [3]: 13.1% | viability, T/C [4]: 5.35% | viability, T/C [5]: 5.85% | viability, T/C [6]: 3.72% | viability, T/C [7]: 66.3% | viability, T/C [8]: 29.4% | viability, T/C [9]: 12.7% | viability, T/C [10]: 6.46% | viability, T/C [11]: 4.05% | viability, T/C [12]: 3.93% | viability, T/C [13]: 48.1% | viability, T/C [14]: 14.3% | viability, T/C [15]: 5.71% | viability, T/C [16]: 5.18% | viability, T/C [17]: 4.33% | viability, T/C [18]: 3.75% | viability, T/C [19]: 3.38% | viability, T/C [20]: 3.29% | viability, T/C [21]: 4.19% | viability, T/C [22]: 4.05% | viability, T/C [23]: 4.41% | viability, T/C [24]: 2.28% | viability, T/C [25]: 3.79% | viability, T/C [26]: 4.74% | viability, T/C [27]: 3.3% | viability, T/C [28]: 2.73% | viability, T/C [29]: 3.37% | viability, T/C [30]: 1.52% | viability, T/C [31]: 4.11% | viability, T/C [32]: 3.77% | viability, T/C [33]: 3.3% | viability, T/C [34]: 3.47% | viability, T/C [35]: 2.98% | viability, T/C [36]: 2.3%

CC1COCCN1c1cc(C2(O)CC3CCC(C2)O3)c2cnn(-c3ccn[nH]3)c2n1 (stereo not drawn) + Cc1[nH]c2ccc(F)cc2c1-c1nc2c3cccnc3c3ncccc3c2[nH]1
pIC50 (second compound 0.0316 µM): 7.42 | pIC50 (second compound 0.1 µM): 7.37 | pIC50 (second compound 0.316 µM): > 7.50 | pIC50 (second compound 1 µM): > 7.50 | pIC50 (second compound 3.16 µM): > 7.50 | pIC50 (second compound 10 µM): > 7.50 | viability, T/C [1]: 55.6% | viability, T/C [2]: 18.9% | viability, T/C [3]: 7.44% | viability, T/C [4]: 4.8% | viability, T/C [5]: 3.59% | viability, T/C [6]: 2.02% | viability, T/C [7]: 61% | viability, T/C [8]: 17.7% | viability, T/C [9]: 8.01% | viability, T/C [10]: 6.5% | viability, T/C [11]: 3.58% | viability, T/C [12]: 1.71% | viability, T/C [13]: 21.6% | viability, T/C [14]: 7.64% | viability, T/C [15]: 4.88% | viability, T/C [16]: 3.7% | viability, T/C [17]: 3.28% | viability, T/C [18]: 1.86% | viability, T/C [19]: 3% | viability, T/C [20]: 3.91% | viability, T/C [21]: 3.25% | viability, T/C [22]: 3.03% | viability, T/C [23]: 3.34% | viability, T/C [24]: 1.4% | viability, T/C [25]: 3.59% | viability, T/C [26]: 4.2% | viability, T/C [27]: 3.24% | viability, T/C [28]: 3.06% | viability, T/C [29]: 3.02% | viability, T/C [30]: 1.16% | viability, T/C [31]: 3.5% | viability, T/C [32]: 2.96% | viability, T/C [33]: 4.38% | viability, T/C [34]: 2.77% | viability, T/C [35]: 3% | viability, T/C [36]: 1.15%

CC1COCCN1c1cc(C2(S(C)(=N)=O)CC2)nc(-c2ccnc3[nH]ccc23)n1 (stereo not drawn) + Cc1[nH]c2ccc(F)cc2c1-c1nc2c3cccnc3c3ncccc3c2[nH]1
pIC50 (second compound 0.0316 µM): 6.01 | pIC50 (second compound 0.1 µM): 6.05 | pIC50 (second compound 0.316 µM): 6.37 | pIC50 (second compound 1 µM): > 7.50 | pIC50 (second compound 3.16 µM): > 7.50 | pIC50 (second compound 10 µM): > 7.50 | viability, T/C [1]: 80% | viability, T/C [2]: 86.7% | viability, T/C [3]: 80.4% | viability, T/C [4]: 49.2% | viability, T/C [5]: 14.5% | viability, T/C [6]: 7.71% | viability, T/C [7]: 87.4% | viability, T/C [8]: 98.1% | viability, T/C [9]: 74.4% | viability, T/C [10]: 48.9% | viability, T/C [11]: 13.7% | viability, T/C [12]: 6.84% | viability, T/C [13]: 81.5% | viability, T/C [14]: 74.3% | viability, T/C [15]: 60.9% | viability, T/C [16]: 21.1% | viability, T/C [17]: 7.66% | viability, T/C [18]: 3.74% | viability, T/C [19]: 4.68% | viability, T/C [20]: 4.27% | viability, T/C [21]: 4.11% | viability, T/C [22]: 3.67% | viability, T/C [23]: 4.03% | viability, T/C [24]: 2.64% | viability, T/C [25]: 4.14% | viability, T/C [26]: 5.15% | viability, T/C [27]: 4.92% | viability, T/C [28]: 4.78% | viability, T/C [29]: 3.97% | viability, T/C [30]: 2.94% | viability, T/C [31]: 3.9% | viability, T/C [32]: 4.76% | viability, T/C [33]: 5.04% | viability, T/C [34]: 3.7% | viability, T/C [35]: 3.55% | viability, T/C [36]: 2.63%

COc1ccc([C@@H](O)c2cc(-c3ncnc4cc(N5CCOCC5)ccc34)c(F)cc2Cl)nn1 + Cc1[nH]c2ccc(F)cc2c1-c1nc2c3cccnc3c3ncccc3c2[nH]1
pIC50 (second compound 0.0316 µM): 6.10 | pIC50 (second compound 0.1 µM): 6.09 | pIC50 (second compound 0.316 µM): 6.12 | pIC50 (second compound 1 µM): > 7.50 | pIC50 (second compound 3.16 µM): > 7.50 | pIC50 (second compound 10 µM): > 7.50 | viability, T/C [1]: 92% | viability, T/C [2]: 76.5% | viability, T/C [3]: 86.5% | viability, T/C [4]: 40.7% | viability, T/C [5]: 21.9% | viability, T/C [6]: 6.2% | viability, T/C [7]: 92.2% | viability, T/C [8]: 89.6% | viability, T/C [9]: 91.5% | viability, T/C [10]: 40.6% | viability, T/C [11]: 19.5% | viability, T/C [12]: 5.14% | viability, T/C [13]: 66.3% | viability, T/C [14]: 83.1% | viability, T/C [15]: 82.6% | viability, T/C [16]: 41.5% | viability, T/C [17]: 12.3% | viability, T/C [18]: 4.85% | viability, T/C [19]: 3.85% | viability, T/C [20]: 4.89% | viability, T/C [21]: 4.79% | viability, T/C [22]: 4.97% | viability, T/C [23]: 4% | viability, T/C [24]: 5.1% | viability, T/C [25]: 3.89% | viability, T/C [26]: 4.57% | viability, T/C [27]: 3.71% | viability, T/C [28]: 4.88% | viability, T/C [29]: 3.87% | viability, T/C [30]: 3.46% | viability, T/C [31]: 3.68% | viability, T/C [32]: 3.5% | viability, T/C [33]: 4.28% | viability, T/C [34]: 4.13% | viability, T/C [35]: 5.35% | viability, T/C [36]: 3.84%
